Experimental data: paper PMC9050506 (RSC Advances, 2020)

Tested on: Recombinant influenza A virus hemagglutinin H3 protein (HA)
Settings: SPR sensorgrams Fig. 3A-D

CVN2L0-V2: CVN2L0 variant with one C58E–C73R substitution, three disulfide bonds
Rmax, binding to HA: 723 RU

B1: CVN2L0-V4: CVN2L0 variant with Cys–Cys mutagenesis to Trp–Met and Glu–Arg, two disulfide bonds (protein)
chain: LGKFSQTCYNSAIQGSVLTSTCERTNGGYNTSSIDLNSVIENVDGSLKWQPSNFIETWRNTQLAGSSELAAEMKTRAQQFVSTKINLDDHIANIDGTLKYELGKFSQTCYNSAIQGSVLTSTCERTNGGYNTSSIDLNSVIENVDGSLKWQPSNFIETERNTQLAGSSELAAERKTRAQQFVSTKINLDDHIANIDGTLKYE
modifications: left off: His6, N-terminal, state not stated
Rmax, binding to HA: 34 RU
